This note sets out measurements from ChEMBL document CHEMBL3808363, “2-(Thienothiazolylimino)-1,3-thiazolidin-4-ones inhibit cell division cycle 25 A phosphatase” (Bioorg Med Chem, 2016).

Each structure is given as a SMILES string. Active and inactive are the calls of the source. No cut-off for these calls is given here.

One may read the inhibition as how much of the control response was suppressed. In general, IC50 refers to the concentration that gives 50% inhibition.

The target of assay [1] is T1, M-phase inducer phosphatase 3 (Homo sapiens) (UniProt P30307).
T1 sequence (whole entry): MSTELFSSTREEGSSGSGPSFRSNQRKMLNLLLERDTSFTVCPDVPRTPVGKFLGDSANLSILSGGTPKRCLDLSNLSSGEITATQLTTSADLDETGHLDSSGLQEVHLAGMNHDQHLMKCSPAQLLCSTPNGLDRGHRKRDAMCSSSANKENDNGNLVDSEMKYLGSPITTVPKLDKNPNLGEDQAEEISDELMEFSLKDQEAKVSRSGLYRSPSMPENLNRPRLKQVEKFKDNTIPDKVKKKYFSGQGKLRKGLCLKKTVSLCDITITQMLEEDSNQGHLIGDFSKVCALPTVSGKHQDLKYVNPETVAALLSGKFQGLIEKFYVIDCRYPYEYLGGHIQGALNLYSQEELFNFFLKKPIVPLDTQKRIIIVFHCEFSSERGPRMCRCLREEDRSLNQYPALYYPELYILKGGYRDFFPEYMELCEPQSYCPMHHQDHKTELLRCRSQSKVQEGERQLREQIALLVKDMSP
Nature of the assay: Inhibition of human recombinant full length GST-tagged CDC25C transfected in Escherichia coli BL21-DE3 using 3-O-methylfluorescein phosphate as substrate at 10 uM incubated for 20 mins followed by substrate addition measured every 10 mins for 2 hrs by fluorimetric assay.

In assay [2] the target is T2, M-phase inducer phosphatase 1 (Homo sapiens) (UniProt P30304).
T2 sequence (whole entry): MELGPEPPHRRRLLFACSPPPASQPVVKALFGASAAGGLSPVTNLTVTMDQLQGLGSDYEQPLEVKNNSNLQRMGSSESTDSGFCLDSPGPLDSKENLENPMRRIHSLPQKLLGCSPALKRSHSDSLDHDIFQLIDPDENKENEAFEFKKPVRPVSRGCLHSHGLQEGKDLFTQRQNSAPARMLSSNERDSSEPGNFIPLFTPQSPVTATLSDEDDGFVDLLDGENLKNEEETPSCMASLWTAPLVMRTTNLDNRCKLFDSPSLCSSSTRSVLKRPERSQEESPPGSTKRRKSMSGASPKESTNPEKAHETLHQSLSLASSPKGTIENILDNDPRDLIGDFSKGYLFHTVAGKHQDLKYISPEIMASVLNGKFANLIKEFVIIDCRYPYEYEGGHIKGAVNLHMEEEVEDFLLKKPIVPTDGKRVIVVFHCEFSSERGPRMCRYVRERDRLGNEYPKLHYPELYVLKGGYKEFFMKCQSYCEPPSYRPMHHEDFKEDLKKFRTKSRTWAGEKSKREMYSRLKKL
Nature of the assay: Inhibition of human recombinant full length GST-tagged CDC25A transfected in Escherichia coli BL21-DE3 using 3-O-methylfluorescein phosphate as substrate at 10 uM incubated for 20 mins followed by substrate addition measured every 10 mins for 2 hrs by fluorimetric assay.

Assay [3] has as its system MCF7. Nature of the assay: Cytotoxicity against human MCF7 cells assessed as inhibition of cell growth at IC50 concentration after 72 hrs by trypan blue assay. It is filed as functional.
Assay [4] relates to MCF7. Nature of the assay: Cytotoxicity against human MCF7 cells assessed as inhibition of cell growth after 72 hrs by MTT assay. Conditions: MCF7, 72 h. The class given is functional, cell-based.
The subject of assay [5] is MDA-MB-231. Nature of the assay: Cytotoxicity against human MDA-MB-231 cells assessed as inhibition of cell growth at IC50 concentration after 72 hrs by trypan blue assay. It is filed as functional.
A further assay deals with HT-29. Nature of the assay: Cytotoxicity against human HT-29 cells assessed as inhibition of cell growth after 72 hrs by MTT assay. It is filed as functional, cell-based. Conditions: HT-29, 72 h. (In general: Tetrazolium dyes change colour on reduction, which living cells bring about.)
In assay [6] the target is T3, M-phase inducer phosphatase 2 (Homo sapiens) (UniProt P30305).
T3 sequence (whole entry): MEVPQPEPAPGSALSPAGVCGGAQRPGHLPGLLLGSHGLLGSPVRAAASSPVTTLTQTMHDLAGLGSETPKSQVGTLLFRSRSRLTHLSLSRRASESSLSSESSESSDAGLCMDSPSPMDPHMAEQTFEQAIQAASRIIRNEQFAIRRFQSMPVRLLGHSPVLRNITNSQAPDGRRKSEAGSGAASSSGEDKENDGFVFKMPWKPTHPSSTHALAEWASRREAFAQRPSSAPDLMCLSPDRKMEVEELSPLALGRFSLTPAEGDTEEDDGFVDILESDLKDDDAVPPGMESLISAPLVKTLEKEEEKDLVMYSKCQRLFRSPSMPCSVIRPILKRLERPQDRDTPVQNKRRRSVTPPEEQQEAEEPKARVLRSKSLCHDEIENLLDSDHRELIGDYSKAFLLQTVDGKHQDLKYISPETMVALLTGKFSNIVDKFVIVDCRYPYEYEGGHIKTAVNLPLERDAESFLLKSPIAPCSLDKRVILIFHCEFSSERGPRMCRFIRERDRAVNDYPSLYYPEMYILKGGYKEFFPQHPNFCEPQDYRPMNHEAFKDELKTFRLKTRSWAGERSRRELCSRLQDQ
Nature of the assay: Inhibition of human recombinant GST-tagged CDC25B catalytic domain transfected in Escherichia coli BL21-DE3 using 3-O-methylfluorescein phosphate as substrate at 10 uM incubated for 20 mins followed by substrate addition measured every 10 mins for 2 hrs by fluorimetric assay.

Assay [7] concerns the target T2, M-phase inducer phosphatase 1 (Homo sapiens). Nature of the assay: Reversible binding affinity to human recombinant full length GST-tagged CDC25A transfected in Escherichia coli BL21-DE3 after 1 hr by MALDI-TOF mass spectrometry.
Assay [8] concerns MDA-MB-231. Nature of the assay: Cytotoxicity against human MDA-MB-231 cells assessed as inhibition of cell growth after 72 hrs by MTT assay. Conditions: MDA-MB-231, 72 h. It is filed as functional, cell-based.
Assay [9] addresses T4, M-phase inducer phosphatase 1 (Homo sapiens, UniProt P30304).
T4 sequence (P30304 whole entry): T2 sequence (whole entry)
Nature of the assay: Inhibition of human recombinant full length GST-tagged CDC25A transfected in Escherichia coli BL21-DE3 using 3-O-methylfluorescein phosphate as substrate incubated for 20 mins followed by substrate addition measured every 10 mins for 2 hrs by fluorimetric assay.

Assay [10] in a line: Cytotoxicity against human HCT116 cells assessed as inhibition of cell growth after 72 hrs by MTT assay. As to conditions: HCT-116, 72 h. It is filed as functional, cell-based.
Assay [11] addresses T2, M-phase inducer phosphatase 1 (Homo sapiens). Nature of the assay: Inhibition of human recombinant full length GST-tagged CDC25A transfected in Escherichia coli BL21-DE3 using 3-O-methylfluorescein phosphate as substrate at 10 uM incubated for 20 mins followed by substrate addition measured every 10 mins for 2 hrs by fluorimetric assay in presence of 0.1% triton X 100.
Assay [12] shares this target. Nature of the assay: Inhibition of human recombinant full length GST-tagged CDC25A transfected in Escherichia coli BL21-DE3 using 3-O-methylfluorescein phosphate as substrate at 10 uM incubated for 20 mins followed by substrate addition measured every 10 mins for 2 hrs by fluorimetric assay in presence of 0.05% triton X 100.
Assay [13] shares this target. Nature of the assay: Inhibition of human recombinant full length GST-tagged CDC25A transfected in Escherichia coli BL21-DE3 using 3-O-methylfluorescein phosphate as substrate at 10 uM incubated for 20 mins followed by substrate addition measured every 10 mins for 2 hrs by fluorimetric assay in presence of 0.5% triton X 100.
Assay [14] has the same target. Nature of the assay: Inhibition of human recombinant full length GST-tagged CDC25A transfected in Escherichia coli BL21-DE3 using 3-O-methylfluorescein phosphate as substrate at 10 uM incubated for 20 mins followed by substrate addition measured every 10 mins for 2 hrs by fluorimetric assay in presence of 0.1% BSA.
Assay [15] has the same target. Nature of the assay: Inhibition of human recombinant full length GST-tagged CDC25A transfected in Escherichia coli BL21-DE3 using 3-O-methylfluorescein phosphate as substrate at 10 uM incubated for 20 mins followed by substrate addition measured every 10 mins for 2 hrs by fluorimetric assay in presence of 0.01% triton X 100.
Assay [16] shares this target. Nature of the assay: Inhibition of human recombinant full length GST-tagged CDC25A transfected in Escherichia coli BL21-DE3 using 3-O-methylfluorescein phosphate as substrate at 10 uM incubated for 20 mins followed by substrate addition measured every 10 mins for 2 hrs by fluorimetric assay in presence of 0.025% triton X 100.
In assay [17] the test system is MDA-MB-231. Nature of the assay: Cytotoxicity against human MDA-MB-231 cells assessed as cell growth at IC50 concentration after 72 hrs by trypan blue assay. It is filed as functional.
The subject of assay [18] is MCF7. Nature of the assay: Cytotoxicity against human MCF7 cells assessed as cell growth at IC50 concentration after 72 hrs by trypan blue assay. The class given is functional.

Take `O=C1N/C(=N/c2nc3cc(-c4ccc(Cl)cc4)sc3s2)S/C1=C/c1ccc(F)cc1`: the inhibition in [1] was 15.5%; in [2], 65.6%; in [6] it was 35.4%. For the same compound, the entries for the “growth inhibition (GI)” value in the assay with MCF7 [3] and with MDA-MB-231 [5] were 60% and 30%, respectively. Moreover, the IC50 is 21 µM with MCF7 [4], more than 50 µM with HT-29, 24.7 µM in the assay on MDA-MB-231 [8] and 7.8 µM in [9]. Besides, the outcome in assay [7] was Active.

Regarding `Cc1ccc(/C=C2/S/C(=N\c3nc4cc(-c5ccc(Cl)cc5)sc4s3)NC2=O)cc1`, the inhibition came to 23.3% in assay [1], 68.1% in assay [2] and 24.2% in assay [6]. Moreover, in the assay with MCF7 [3], the “growth inhibition (GI)” value is “inactive”. The IC50 with MCF7 [4] amounted to 3.3 µM; with HT-29 it was 45.5 µM; in the assay with MDA-MB-231 [8], 22.8 µM; in [9] it was 8.3 µM. In addition, the “growth inhibition (GI)” value in the assay with MDA-MB-231 [5] came out at 70%. Also, the outcome in [7] was Active.

Regarding `O=C1CS/C(=N\c2nc3cc(-c4ccc(Cl)cc4)[se]c3s2)N1`, the inhibition in [1] stood at 15.6%; in assay [2], 4.2%; in [6], 17.4%. Besides, the IC50 in assay [10] came out at 43.8 µM; in the assay on MCF7 [4], 21.8 µM; in the assay on HT-29, 42.4 µM; in the assay with MDA-MB-231 [8], 35.6 µM.

For the compound `O=C1CS/C(=N\c2nc3cc(-c4ccc(Cl)cc4)sc3s2)N1`, the inhibition amounted to 16.4% in [1], 6.8% in assay [2] and 21.6% in [6]. Also, the IC50 was 14.5 µM in assay [10], 12.4 µM with MCF7 [4], 13.6 µM in the assay with HT-29 and 18.8 µM with MDA-MB-231 [8].

As for `O=C1N/C(=N/c2nc3cc(-c4ccc(Cl)cc4)sc3s2)S/C1=C/c1ccc(Cl)cc1`, the IC50 in the assay on MCF7 [4] and with HT-29 was more than 50 µM in each case.

Regarding `O=C1N/C(=N/c2nc3cc(-c4ccc(Br)cc4)sc3s2)S/C1=C/c1ccc(Cl)cc1`, the inhibition came to 6.1% in assay [1], 28.4% in assay [2] and 3.8% in [6]. The IC50 stood at 15.5 µM in assay [10], 11 µM in the assay with MCF7 [4], 15.2 µM in the assay on HT-29 and 22.3 µM in the assay on MDA-MB-231 [8]. The “growth inhibition (GI)” value in the assay with MCF7 [3] was determined as 25%; in the assay with MDA-MB-231 [5] it was 35%.

With `CN(C)c1ccc(/C=C2/S/C(=N\c3nc4cc(-c5ccc(Cl)cc5)sc4s3)NC2=O)cc1`, the IC50 in the assay with MCF7 [4] and with HT-29 was more than 50 µM each time.

As to `O=C1C=CC(=O)c2ccccc21`, the inhibition was 99.2% in assay [1]; 79.7% in assay [2]; 24.7% in [11]; 26.5% in [12]; 26.3% in assay [13]; 20.3% in assay [14]. Moreover, the inhibition in assay [15] worked out at 20.6%; in assay [6] it was 71.2%; in assay [16], 18.6%.

As for `O=C1N/C(=N/c2nc3cc(-c4ccc(Cl)cc4)sc3s2)S/C1=C/c1ccc2ccccc2c1`, the Activity with MDA-MB-231 [17] and with MCF7 [18] was more than 80% throughout. In addition, the values for the inhibition in assay [1], in [2] and in assay [6] were 22.6%, 67% and 27.3%, respectively. Moreover, the IC50 in the assay on MCF7 [4] was 15.2 µM; in the assay with HT-29 it was more than 50 µM; in the assay with MDA-MB-231 [8], more than 50 µM; in assay [9], 7.3 µM. Besides, the result in assay [7] was Active.
